Read-outs that look alike come from different tables or passages of the source.
Key:
[1] = system: HCC827 (human non-small cell lung cancer cells); test: MTT cancer cell growth inhibition; format: cell-based; conditions: Homo sapiens, HCC827, 72 h, MTT, 72 hours incubation, HCC827 cells; read-out: GI50 HCC827
Procedure, shortened: (§1)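 Growth inhibition is scored with MTT after three days of compound treatment spanning 10^−5–10^−10 M. Cells are maintained in DMEM or 1640 medium containing 10% FBS and plated at 1500 per well the previous night; absorbance at 570 nm gives viability, from which GI50 is calculated.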

[2] = system: Bel-7402 (human hepatoma cells); test: MTT cancer cell growth inhibition; format: cell-based; conditions: Homo sapiens, Bel-7402, 72 h, MTT, 72 hours incubation, Bel-7402 cells; read-out: GI50 Bel-7402
Procedure, shortened: as §1

[3] = system: U937 (human leukemia cells); test: MTT cancer cell growth inhibition; format: cell-based; conditions: Homo sapiens, U-937, 72 h, MTT, 72 hours incubation, read-out: GI50 U93
Procedure, shortened: as §1

[4] = system: MDA-MB-231 (breast cancer cells); test: MTT cancer cell growth inhibition; format: cell-based; conditions: Homo sapiens, MDA-MB-231, 72 h, read-out: GI50 MDA-MB-231, MTT, 72 hours incubation, MDA-MB-231 cells
Procedure, shortened: as §1

[5] = system: KBM-5 (human chronic myelogenous leukemia); test: MTT cancer cell growth inhibition; format: cell-based; conditions: Homo sapiens, KBM5, 72 h, MTT, 72 hours incubation, KBM-5 cells; read-out: GI50 KBM-5
Procedure, shortened: as §1

[6] = system: N-87 (human gastric cancer cells); test: MTT cancer cell growth inhibition; format: cell-based; conditions: Homo sapiens, 72 h, MTT, 72 hours incubation, N-87 cells; read-out: GI50 N-87
Procedure, shortened: as §1

[7] = system: Hela (human cervical cancer cells); test: MTT cancer cell growth inhibition; format: cell-based; conditions: Homo sapiens, HeLa, 72 h, MTT, 72 hours incubation, read-out: GI50 Hela
Procedure, shortened: as §1

[8] = system: lncap (prostate cancer cells); test: MTT cancer cell growth inhibition; format: cell-based; conditions: Homo sapiens, LNCaP, 72 h, MTT, 72 hours incubation, read-out: GI50 lnca
Procedure, shortened: as §1

[9] = system: Huh-7 (human hepatoma cells); test: MTT cancer cell growth inhibition; format: cell-based; conditions: Homo sapiens, Huh-7, 72 h, MTT, 72 hours incubation, Huh-7 cells; read-out: GI50 Huh-7
Procedure, shortened: as §1

[10] = system: SGC-7901 (human gastric cancer cells); test: MTT cancer cell growth inhibition; format: cell-based; conditions: Homo sapiens, SGC-7901, 72 h, MTT, 72 hours incubation, SGC-7901 cells; read-out: GI50 SGC-7901
Procedure, shortened: as §1

[11] = system: PANC-1 (Pac-1, human pancreatic cancer cells); test: MTT cancer cell growth inhibition; format: cell-based; conditions: Homo sapiens, PANC-1, 72 h, MTT, 72 hours incubation, read-out: GI50 PAN
Procedure, shortened: as §1

[12] = system: MOLT-4 (human acute lymphoblastic leukemia cells); test: MTT cancer cell growth inhibition; format: cell-based; conditions: Homo sapiens, MOLT-4, 72 h, MTT, 72 hours incubation, read-out: GI50 Mol
Procedure, shortened: as §1

[13] = system: BGC-823 (human gastric cancer cells); test: MTT cancer cell growth inhibition; format: cell-based; conditions: Homo sapiens, BGC-823, 72 h, MTT, 72 hours incubation, read-out: GI50 BG
Procedure, shortened: as §1

[14] = system: HT1080 (human fibrosarcoma cells); test: MTT cancer cell growth inhibition; format: cell-based; conditions: Homo sapiens, HT-1080, 72 h, MTT, 72 hours incubation, read-out: GI50 HT1
Procedure, shortened: as §1

[15] = system: A549 (human lung cancer cells); test: MTT cancer cell growth inhibition; format: cell-based; conditions: Homo sapiens, A549, 72 h, MTT, 72 hours incubation, read-out: GI50 A54
Procedure, shortened: as §1

[16] = system: DU145 (human prostate cancer cells); test: MTT cancer cell growth inhibition; format: cell-based; conditions: Homo sapiens, DU-145, 72 h, MTT, 72 hours incubation, read-out: GI50 Du1
Procedure, shortened: as §1

[17] = system: H1975 (non-small cell lung adenocarcinoma); test: MTT cancer cell growth inhibition; format: cell-based; conditions: Homo sapiens, NCI-H1975, 72 h, MTT, 72 hours incubation, H1975 cells; read-out: GI50 H1975
Procedure, shortened: as §1

[18] = system: KBM5-T315I (human chronic myelogenous leukemia); test: MTT cancer cell growth inhibition; format: cell-based; conditions: Homo sapiens, 72 h, MTT, 72 hours incubation, KBM5-T315I cells; read-out: GI50 KBM5-T315I
Procedure, shortened: as §1

[19] = system: MCF-7 (human breast cancer cells); test: MTT cancer cell growth inhibition; format: cell-based; conditions: Homo sapiens, MCF7, 72 h, 72 hours incubation, read-out: GI50 MCF
Procedure, shortened: as §1

[20] = system: K562 (human leukemia cells); test: MTT cancer cell growth inhibition; format: cell-based; conditions: Homo sapiens, K562, 72 h, MTT, 72 hours incubation, K562 cells; read-out: GI50 K562
Procedure, shortened: as §1

HDAC7 = target: T1, HDAC7 (Homo sapiens, UniProt Q8WUI4); test: HDAC biochemical activity measurement (fluorescent substrate deacetylation);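 also: fluorogenic deacetylation assay using acetyl-lysine substrate at 20 µM, enzyme and compound incubated 30 min at 37 °C, then developer added, fluorescence read at 360/460 nm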; conditions: HDAC7; 37° C. 30 minutes
T1 sequence (Q8WUI4 1-952): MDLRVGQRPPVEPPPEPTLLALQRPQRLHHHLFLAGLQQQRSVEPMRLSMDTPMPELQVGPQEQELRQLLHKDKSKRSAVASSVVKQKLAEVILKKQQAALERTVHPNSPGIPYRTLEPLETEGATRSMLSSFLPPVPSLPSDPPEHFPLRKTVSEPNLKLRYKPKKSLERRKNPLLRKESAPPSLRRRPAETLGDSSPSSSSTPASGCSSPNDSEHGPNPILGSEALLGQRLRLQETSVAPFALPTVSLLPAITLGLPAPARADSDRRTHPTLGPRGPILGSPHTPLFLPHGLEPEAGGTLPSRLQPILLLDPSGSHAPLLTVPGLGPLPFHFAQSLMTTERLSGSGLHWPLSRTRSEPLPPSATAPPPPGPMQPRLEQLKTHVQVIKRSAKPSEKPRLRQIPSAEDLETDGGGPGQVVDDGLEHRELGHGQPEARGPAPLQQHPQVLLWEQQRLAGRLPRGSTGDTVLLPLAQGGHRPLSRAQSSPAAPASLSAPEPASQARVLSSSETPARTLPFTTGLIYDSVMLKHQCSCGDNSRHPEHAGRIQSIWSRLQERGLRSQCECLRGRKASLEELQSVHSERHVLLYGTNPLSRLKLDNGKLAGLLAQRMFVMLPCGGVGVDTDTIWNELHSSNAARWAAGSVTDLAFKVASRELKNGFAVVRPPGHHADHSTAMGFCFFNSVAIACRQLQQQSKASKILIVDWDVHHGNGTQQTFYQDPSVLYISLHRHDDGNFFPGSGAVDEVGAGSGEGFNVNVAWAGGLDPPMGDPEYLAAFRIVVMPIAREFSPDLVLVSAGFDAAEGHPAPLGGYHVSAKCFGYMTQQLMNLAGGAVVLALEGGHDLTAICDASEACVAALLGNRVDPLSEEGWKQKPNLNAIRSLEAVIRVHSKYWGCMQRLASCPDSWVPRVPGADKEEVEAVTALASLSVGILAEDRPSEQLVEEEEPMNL

| GI50 [1] [nM] | GI50 [2] [nM] | GI50 ([3]; U937 cells) [nM] | GI50 [4] [nM] | GI50 [5] [nM] | GI50 [6] [nM] | GI50 ([7]; Hela cells) [nM] | GI50 ([8]; lncap cells) [nM] | GI50 [9] [nM] | GI50 [10] [nM] | GI50 ([11]; PANC-1 cells) [nM] | GI50 ([12]; MOLT-4 cells) [nM] | GI50 ([13]; BGC-823 cells) [nM] | GI50 ([14]; HT1080 cells) [nM] | GI50 ([15]; A549 cells) [nM] | GI50 ([16]; DU145 cells) [nM] | GI50 [17] [nM] | GI50 [18] [nM] | GI50 [20] [nM] | IC50 HDAC7 (HDAC7) | SMILES | also measured |
| --- | --- | --- | --- | --- | --- | --- | --- | --- | --- | --- | --- | --- | --- | --- | --- | --- | --- | --- | --- | --- | --- |
| 56 | 47 | 20 | 72 | 52 | 27 | 30 | 50 | 22 | 105 | 50 | 50 | 10 | 20 | 50 | 30 | 25 | 49 | 86 | no activity | C=C1NC(=O)c2nc(ccc2SC)CNC(=O)C[C@@H](/C=C/CCSC(C)=O)OC(=O)[C@H](C)NC1=O [Compound 210] | GI50 ([19]; MCF-7 cells): 30 nM |
| 79 | 54 | 50 | 91 | 26 | 42 | 60 | 90 | 45 | 14 | 30 | 20 | 20 | 30 | 90 | 50 | 38 | 43 | 81 | no activity | C/C=C1\NC(=O)c2nc(ccc2SC)CNC(=O)C[C@@H](/C=C/CCSC(C)=O)OC(=O)[C@H](CCCCNC(=O)OCC2c3ccccc3-c3ccccc32)NC1=O [Compound 195] | GI50 ([19]; MCF-7 cells): 30 nM |
| 51 | 51 | – | 46 | 91 | 62 | – | – | 46 | 48 | – | – | – | – | – | – | 38 | 31 | 26 | no activity | C=C1NC(=O)c2cc(F)cc(n2)CNC(=O)C[C@@H](/C=C/CCSC(C)=O)OC(=O)[C@H](C)NC1=O [Compound 91] | GI50 [3]: 30 nM; GI50 [7]: 90 nM; GI50 [8]: 40 nM; GI50 [11]: 50 nM; GI50 [12]: 40 nM; GI50 [13]: 60 nM; GI50 [14]: 50 nM; GI50 [15]: 40 nM; GI50 [16]: 20 nM; GI50 [19]: 30 nM |

The next lines start with the molecule.

| SMILES | GI50 [1] [nM] | GI50 [2] [nM] | GI50 ([3]; U937 cells) [nM] | GI50 [4] [nM] | GI50 [5] [nM] | GI50 [6] [nM] | GI50 ([7]; Hela cells) [nM] | GI50 ([8]; lncap cells) [nM] | GI50 [9] [nM] | GI50 [10] [nM] | GI50 ([11]; PANC-1 cells) [nM] | GI50 ([12]; MOLT-4 cells) [nM] | GI50 ([13]; BGC-823 cells) [nM] | GI50 ([14]; HT1080 cells) [nM] | GI50 ([15]; A549 cells) [nM] | GI50 ([16]; DU145 cells) [nM] | GI50 [17] [nM] | GI50 [18] [nM] | GI50 [20] [nM] | IC50 HDAC7 (HDAC7) | also measured |
| --- | --- | --- | --- | --- | --- | --- | --- | --- | --- | --- | --- | --- | --- | --- | --- | --- | --- | --- | --- | --- | --- |
| C/C=C1\NC(=O)c2ccc(C)c(n2)CNC(=O)C[C@@H](/C=C/CCSC(C)=O)OC(=O)[C@H](Cc2ccccc2)NC1=O [Example 68] | 83 | 83 | – | 22 | 51 | 43 | – | – | 22 | 29 | – | – | – | – | – | – | 35 | 34 | 26 | no activity | GI50 [3]: 30 nM; GI50 [7]: 50 nM; GI50 [8]: 20 nM; GI50 [11]: 80 nM; GI50 [12]: 20 nM; GI50 [13]: 40 nM; GI50 [14]: 80 nM; GI50 [15]: 20 nM; GI50 [16]: 20 nM; GI50 [19]: 30 nM |
| C/C=C1\NC(=O)c2cccc(n2)CNC(=O)C[C@@H](/C=C/CCS)OC(=O)[C@H](CCCCNC(=O)OCC2c3ccccc3-c3ccccc32)NC1=O [Compound 119] | 37 | 37 | – | 27 | 62 | 38 | – | – | 26 | 34 | – | – | – | – | – | – | 38 | 28 | 36 | no activity | GI50 [3]: 60 nM; GI50 [7]: 90 nM; GI50 [8]: 90 nM; GI50 [11]: 40 nM; GI50 [12]: 90 nM; GI50 [13]: 40 nM; GI50 [14]: 90 nM; GI50 [15]: 60 nM; GI50 [16]: 50 nM; GI50 [19]: 50 nM |
| C/C=C1\NC(=O)c2cc(SC)cc(n2)CNC(=O)C[C@@H](/C=C/CCSC(C)=O)OC(=O)[C@H](CCCCNC(=O)OCC2c3ccccc3-c3ccccc32)NC1=O [Compound 196] | 64 | 89 | 60 | 85 | 28 | 56 | 80 | 60 | 23 | 45 | 60 | 30 | 50 | 70 | 20 | 130 | 62 | 93 | 58 | no activity | GI50 ([19]; MCF-7 cells): 60 nM |
